Reference: US20140303164A1, “THERAPEUTIC COMPOUNDS” (Gilead Sciences, Inc., priority 2013, published 2014)

Experiments:
[1] = system: HIV-IIIb; assay: Test A: Antiviral Assay in MT4 Cells; assay type: cell-based, HIV-1; conditions: Human immunodeficiency virus 1, IIIB, MT4, 120 h; for inhibition at 0.2 µM: read-out: % inhibition at 0.2 μM; for inhibition at 2 µM: read-out: % inhibition at 2 μM
Method: Test A: Antiviral Assay in MT4 Cells
MT-4 cells were next mixed with HIV-IIIb at an m.o.i of 0.003 for 1 hour, after which time 35 μL of virus/cell mixture (2000 cells) was immediately added to each well containing 40 μL of diluted compound. The plates were then incubated at 37° C. for 5 days. […] Cell lysis was carried out by incubating at room temperature for 10 min and then chemiluminescence was read.

[2] = Test B: Cytotoxicity Assay; assay type: cell-based; conditions: human, uninfected MT-4 cells, same protocol as Test A
Procedure, shortened: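 Uninfected MT-4 cells (2000 per well) incubated with diluted compound at 37° C. for 5 days, following the antiviral protocol without HIV-IIIb.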

Compound | inhibition at 0.2 µM [1] | inhibition at 2 µM [1] | CC50 at 5 days [2]
COc1cc(-c2ccc(Cl)c3c(NS(C)(=O)=O)nn(C)c23)c([C@H](Cc2cc(F)cc(F)c2)NC(=O)Cn2nc(C(F)F)c3c2C(F)(F)[C@@H]2C[C@H]32)nc1C#CC(C)(C)O [Compound 139B, N—((S)-1-(3-(4-chloro-1-methyl-3-(methylsulfonamido)-1H-indazol-7-yl)-6-(3-hydroxy-3-methylbut-1-yn-1-yl)-5-methoxypyridin-2-yl)-2-(3,5-difluorophenyl)ethyl)-2-((3b-S,4aR)-3-(difluoromethyl)-5,5-difluoro-3b,4,4a,5-tetrahydro-1H-cyclopropa[3,4]cyclopenta[1,2-c]pyrazol-1-yl)acetamide] | 94% | 94% | 15.4 µM
Cn1nc(NS(C)(=O)=O)c2cccc(-c3ccc(C#CC(C)(C)O)nc3[C@H](Cc3cc(F)cc(F)c3)NC(=O)Cn3nc(C(F)F)c4c3C(F)(F)[C@@H]3C[C@H]43)c21 [Compound 20, (S)—N-(1-(3-(1-methyl-3-(methylsulfonamido)-1H-indazol-7-yl)-6-(3-hydroxy-3-methylbut-1-ynyl)pyridin-2-yl)-2-(3,5-difluorophenyl)ethyl)-2-((3b-S,4aR)-5,5-difluoro-3-(difluoromethyl)-3b,4,4a,5-tetrahydro-1H-cyclopropa[3,4]cyclopenta[1,2-c]pyrazol-1-yl)acetamide] | 96% | 80% | 11.2 µM
CN(C)c1cc(-c2ccc(Cl)c3c(NS(C)(=O)=O)nn(C)c23)c([C@H](Cc2cc(F)cc(F)c2)NC(=O)Cn2nc(C(F)F)c3c2C(F)(F)[C@@H]2C[C@H]32)nc1C#CC(C)(C)O [Compound 183F, N—((S)-1-(3-(4-chloro-1-methyl-3-(methylsulfonamido)-1H-indazol-7-yl)-5-(dimethylamino)-6-(3-hydroxy-3-methylbut-1-yn-1-yl)pyridin-2-yl)-2-(3,5-difluorophenyl)ethyl)-2-((3b-S,4aR)-3-(difluoromethyl)-5,5-difluoro-3b,4,4a,5-tetrahydro-1H-cyclopropa[3,4]cyclopenta[1,2-c]pyrazol-1-yl)acetamide] | 84% | 84% | 12.4 µM
Cn1nc(NS(C)(=O)=O)c2c(Cl)ccc(-c3ccc(C#CC(C)(C)O)nc3[C@H](Cc3cc(F)cc(F)c3)NC(=O)Cn3ncc4c3C(F)(F)[C@@H]3C[C@H]43)c21 [Compound 150, N—((S)-1-(3-(4-chloro-1-methyl-3-(methylsulfonamido)-1H-indazol-7-yl)-6-(3-hydroxy-3-methylbut-1-yn-1-yl)pyridin-2-yl)-2-(3,5-difluorophenyl)ethyl)-2-((3bS,4aR)-5,5-difluoro-3b,4,4a,5-tetrahydro-1H-cyclopropa[3,4]cyclopenta[1,2-c]pyrazol-1-yl)acetamide] | 87% | 87% | 28.9 µM
CC(C(=O)N[C@@H](Cc1cc(F)cc(F)c1)c1nc(C#CC(C)(C)O)ccc1-c1ccc(Cl)c2c(NS(C)(=O)=O)nn(C)c12)c1ccccc1 (stereo partly drawn) [Compound 195, N—((S)-1-(3-(4-chloro-1-methyl-3-(methylsulfonamido)-1H-indazol-7-yl)-6-(3-hydroxy-3-methylbut-1-yn-1-yl)pyridin-2-yl)-2-(3,5-difluorophenyl)ethyl)-2-phenylpropanamide] | 88% | 90% | 11.2 µM
CC(C)C(=O)Nc1nn(C)c2c(-c3ccc(C#CC(C)(C)O)nc3[C@H](Cc3cc(F)cc(F)c3)NC(=O)Cn3nc(C(F)F)c4c3C(F)(F)[C@@H]3C[C@H]43)ccc(Cl)c12 [Compound 96, N-(4-chloro-7-(2-((S)-1-(2-((3b-S,4aR)-3-(difluoromethyl)-5,5-difluoro-3b,4,4a,5-tetrahydro-1H-cyclopropa[3,4]cyclopenta[1,2-c]pyrazol-1-yl)acetamido)-2-(3,5-difluorophenyl)ethyl)-6-(3-hydroxy-3-methylbut-1-yn-1-yl)pyridin-3-yl)-1-methyl-1H-indazol-3-yl)isobutyramide] | 100% | 100% | 7 µM
CC(C)n1cc(-c2ccc(-c3ccc(Cl)c4c(NS(C)(=O)=O)nn(C)c34)c([C@H](Cc3cc(F)cc(F)c3)NC(=O)Cn3nc(C(F)(F)F)c4c3C(F)(F)[C@@H]3C[C@H]43)n2)cn1 [Compound 174, N—((S)-1-(3-(4-chloro-1-methyl-3-(methylsulfonamido)-1H-indazol-7-yl)-6-(1-isopropyl-1H-pyrazol-4-yl)pyridin-2-yl)-2-(3,5-difluorophenyl)ethyl)-2-((3bS,4aR)-5,5-difluoro-3-(trifluoromethyl)-3b,4,4a,5-tetrahydro-1H-cyclopropa[3,4]cyclopenta[1,2-c]pyrazol-1-yl)acetamide] | 85% | 85% | > 53.2 µM
Cn1nc(NCC#N)c2c(Cl)ccc(-c3ccc(C#CC(C)(C)O)nc3[C@H](Cc3cc(F)cc(F)c3)NC(=O)Cn3nc(C(F)F)c4c3C(F)(F)[C@@H]3C[C@H]43)c21 [Compound 93, N—((S)-1-(3-(4-chloro-3-((cyanomethyl)amino)-1-methyl-1H-indazol-7-yl)-6-(3-hydroxy-3-methylbut-1-yn-1-yl)pyridin-2-yl)-2-(3,5-difluorophenyl)ethyl)-2-((3b-S,4aR)-3-(difluoromethyl)-5,5-difluoro-3b,4,4a,5-tetrahydro-1H-cyclopropa[3,4]cyclopenta[1,2-c]pyrazol-1-yl)acetamide] | 92% | 92% | 4.81 µM
Cn1nc(NS(C)(=O)=O)c2c(Cl)ccc(-c3ccc(-c4cnn(C(C)(C)C)c4)nc3[C@H](Cc3cc(F)cc(F)c3)NC(=O)Cn3nc(C(F)F)c4c3C(F)(F)[C@@H]3C[C@H]43)c21 [Compound 168B, N—((S)-1-(6-(1-(tert-butyl)-1H-pyrazol-4-yl)-3-(4-chloro-1-methyl-3-(methylsulfonamido)-1H-indazol-7-yl)pyridin-2-yl)-2-(3,5-difluorophenyl)ethyl)-2-((3b-S,4aR)-3-(difluoromethyl)-5,5-difluoro-3b,4,4a,5-tetrahydro-1H-cyclopropa[3,4]cyclopenta[1,2-c]pyrazol-1-yl)acetamide] | 90% | 90% | > 53.2 µM
Cn1nc(NS(C)(=O)=O)c2cccc(-c3cnc(C#CC(C)(C)O)nc3[C@H](Cc3cc(F)cc(F)c3)NC(=O)Cn3nc(C(F)(F)F)c4c3C(F)(F)[C@@H]3C[C@H]43)c21 [Compound 41, 2-((3bS,4aR)-5,5-difluoro-3-(trifluoromethyl)-3b,4,4a,5-tetrahydro-1H-cyclopropa[3,4]cyclopenta[1,2-c]pyrazol-1-yl)-N—((S)-2-(3,5-difluorophenyl)-1-(2-(3-hydroxy-3-methylbut-1-yn-1-yl)-5-(1-methyl-3-(methylsulfonamido)-1H-indazol-7-yl)pyrimidin-4-yl)ethyl)acetamide] | 98% | 98% | 7.63 µM
Cn1nc(N)c2cccc(-c3ccc(C#CC(C)(C)O)nc3[C@H](Cc3cc(F)cc(F)c3)NC(=O)Cn3nc(C(F)F)c4c3C(F)(F)[C@@H]3C[C@H]43)c21 [Compound 32, N—((S)-1-(3-(3-amino-1-methyl-1H-indazol-7-yl)-6-(3-hydroxy-3-methylbut-1-yn-1-yl)pyridin-2-yl)-2-(3,5-difluorophenyl)ethyl)-2-((3b-S,4aR)-3-(difluoromethyl)-5,5-difluoro-3b,4,4a,5-tetrahydro-1H-cyclopropa[3,4]cyclopenta[1,2-c]pyrazol-1-yl)acetamide] | 84% | 84% | 9.18 µM
CC(C)(O)C#Cc1ccc(-c2cccc3c(=O)[nH]ccc23)c([C@H](Cc2cc(F)cc(F)c2)NC(=O)Cn2nc(C(F)(F)F)c3c2C(F)(F)[C@@H]2C[C@H]32)n1 [Compound 24B, 2-((3bS,4aR)-5,5-difluoro-3-(trifluoromethyl)-3b,4,4a,5-tetrahydro-1H-cyclopropa[3,4]cyclopenta[1,2-c]pyrazol-1-yl)-N—((S)-2-(3,5-difluorophenyl)-1-(6-(3-hydroxy-3-methylbut-1-yn-1-yl)-3-(1-oxo-1,2-dihydroisoquinolin-5-yl)pyridin-2-yl)ethyl)acetamide] | 78% | 83% | 5.92 µM
Cn1nc(NS(C)(=O)=O)c2cccc(-c3ccc(C#CC(C)(C)CO)nc3[C@H](Cc3cc(F)cc(F)c3)NC(=O)Cn3nc(C(F)(F)F)c4c3C(F)(F)[C@@H]3C[C@H]43)c21 [Compound 63, 2-((3bS,4aR)-5,5-difluoro-3-(trifluoromethyl)-3b,4,4a,5-tetrahydro-1H-cyclopropa[3,4]cyclopenta[1,2-c]pyrazol-1-yl)-N—((S)-2-(3,5-difluorophenyl)-1-(6-(4-hydroxy-3,3-dimethylbut-1-yn-1-yl)-3-(1-methyl-3-(methylsulfonamido)-1H-indazol-7-yl)pyridin-2-yl)ethyl)acetamide] | 91% | 91% | 8.89 µM
CC(C)(O)C#Cc1ccc(-c2ccc(Cl)c3c(NS(C)(=O)=O)n[nH]c23)c([C@H](Cc2cc(F)cc(F)c2)NC(=O)Cn2nc(C(F)F)c3c2C(F)(F)[C@@H]2C[C@H]32)n1 [Compound 108C, N—((S)-1-(3-(4-chloro-3-(methylsulfonamido)-1H-indazol-7-yl)-6-(3-hydroxy-3-methylbut-1-yn-1-yl)pyridin-2-yl)-2-(3,5-difluorophenyl)ethyl)-2-((3b-S,4aR)-3-(difluoromethyl)-5,5-difluoro-3b,4,4a,5-tetrahydro-1H-cyclopropa[3,4]cyclopenta[1,2-c]pyrazol-1-yl)acetamide] | 94% | 94% | > 53.1 µM
